Patent publication US8846698B2, “Pyrrolo[2,3-d]pyrimidine tropomysin-related kinase inhibitors” (Pfizer Limited, priority 2011, dated 2014)

Target: TRKA (Homo sapiens (Human), UniProt P04629)
Assay: Isolated TRK enzyme assay (HTRF KinEASE-TK), TRKA
Type: biochemical
Conditions: read-out: Trka enzyme (IC50)

TRKA, sequence (P04629 441-796): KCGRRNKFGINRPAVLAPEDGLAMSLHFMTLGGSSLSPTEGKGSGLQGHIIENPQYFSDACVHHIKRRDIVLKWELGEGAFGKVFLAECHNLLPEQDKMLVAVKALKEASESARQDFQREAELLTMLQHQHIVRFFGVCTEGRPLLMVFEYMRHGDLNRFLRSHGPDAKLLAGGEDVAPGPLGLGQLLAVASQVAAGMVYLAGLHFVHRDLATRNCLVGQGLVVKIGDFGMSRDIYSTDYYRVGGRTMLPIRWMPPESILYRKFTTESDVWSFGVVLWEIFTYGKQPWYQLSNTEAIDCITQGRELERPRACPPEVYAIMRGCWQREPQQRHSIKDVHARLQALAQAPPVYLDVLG

## CC(C)(CO)n1cc(C(=O)c2cncc(NC(=O)Cn3cc4ccccc4n3)c2)c2cnc(N)nc21 [Example 553, N-{5-[2-Amino-7-(2-hydroxy-1,1-dimethyl-ethyl)-7H-pyrrolo[2,3-d]pyrimidine-5-carbonyl]-pyridin-3-yl}-2-indazol-2-yl-acetamide]
  IC50: 4.4 nM

## CC(C)n1cc(C(=O)c2cncc(NC(=O)Cn3ncc4cccnc43)c2)c2cncnc21 [Example 102, N-{5-[(7-isopropyl-7H-pyrrolo[2,3-d]pyrimidin-5-yl)carbonyl]pyridin-3-yl}-2-(1H-pyrazolo[3,4-b]pyridin-1-yl)acetamide]
  IC50: 42.9 nM

## CC(C)n1cc(C(=O)c2cncc(NC(=O)c3ncoc3C3CC3)c2)c2cncnc21 [Example 385, 5-Cyclopropyl-oxazole-4-carboxylic acid [5-(7-isopropyl-7H-pyrrolo[2,3-d]pyrimidine-5-carbonyl)-pyridin-3-yl]-amide]
  IC50: 81.6 nM

## CC(C)n1cc(C(=O)c2cncc(NC(=O)c3cnc4c(c3)OCCO4)c2)c2cncnc21 [Example 446, 2,3-Dihydro-1,4-dioxino[2,3-b]pyridine-7-carboxylic acid [5-(7-isopropyl-7H-pyrrolo[2,3-d]pyrimidine-5-carbonyl)-pyridin-3-yl]-amide]
  IC50: 812 nM

## CC(C)n1cc(C(=O)c2cncc(NC(=O)c3cc4occc4cn3)c2)c2cncnc21 [Example 455, Furo[3,2-c]pyridine-6-carboxylic acid [5-(7-isopropyl-7H-pyrrolo[2,3-d]pyrimidine-5-carbonyl)-pyridin-3-yl]-amide]
  IC50: 1070 nM

## Nc1ncc2c(C(=O)c3cncc(NC(=O)Cn4cc(C(F)(F)F)nn4)c3)cn(C34CC(C3)C4)c2n1 [Example 581, N-[5-(2-Amino-7-bicyclo[1.1.1]pent-1-yl-7H-pyrrolo[2,3-d]pyrimidine-5-carbonyl)-pyridin-3-yl]-2-(4-trifluoromethyl-[1,2,3]triazol-1-yl)-acetamide]
  IC50: 3.21 nM

## CC(C)n1cc(C(=O)c2cncc(NC(=O)c3cnc4nccn4c3)c2)c2cncnc21 [Example 495, Imidazo[1,2-a]pyrimidine-6-carboxylic acid [5-(7-isopropyl-7H-pyrrolo[2,3-d]pyrimidine-5-carbonyl)-pyridin-3-yl]-amide]
  IC50: 9800 nM

## CC(C)n1cc(C(=O)c2cncc(NC(=O)c3cnc4occc4c3)c2)c2cncnc21 [Example 491, Furo[2,3-b]pyridine-5-carboxylic acid [5-(7-isopropyl-7H-pyrrolo[2,3-d]pyrimidine-5-carbonyl)-pyridin-3-yl]-amide]
  IC50: 1410 nM

## CC(C)(C)n1cc(C(=O)c2cncc(NC(=O)Cn3cc(C4CC4)cn3)c2)c2cnc(N)nc21 [Example 577, N-[5-(2-Amino-7-tert-butyl-7H-pyrrolo[2,3-d]pyrimidine-5-carbonyl)-pyridin-3-yl]-2-(4-cyclopropyl-pyrazol-1-yl)-acetamide]
  IC50: 1.9 nM

## COCc1cc(C(=O)Nc2cncc(C(=O)c3cn(C(C)C)c4ncncc34)c2)no1 [Example 469, 5-Methoxymethyl-isoxazole-3-carboxylic acid [5-(7-isopropyl-7H-pyrrolo[2,3-d]pyrimidine-5-carbonyl)-pyridin-3-yl]-amide]
  IC50: 523 nM

## Cc1cc(C(F)(F)F)nn1CC(=O)Nc1cncc(C(=O)c2cn(C(C)C)c3ncncc23)c1 [Example 96, N-{5-[(7-isopropyl-7H-pyrrolo[2,3-d]pyrimidin-5-yl)carbonyl]pyridin-3-yl}-2-[5-methyl-3-(trifluoromethyl)-1H-pyrazol-1-yl]acetamide]
  IC50: 5.45 nM

## Cc1cc(C(C)C)nn1CC(=O)Nc1cncc(C(=O)c2cn(C(C)C)c3ncncc23)c1 [Example 104, 2-(3-isopropyl-5-methyl-1H-pyrazol-1-yl)-N-{5-[(7-isopropyl-7H-pyrrolo[2,3-d]pyrimidin-5-yl)carbonyl]pyridin-3-yl}acetamide]
  IC50: 20 nM

## CC(C)(C)n1cc(C(=O)c2cncc(NC(=O)Cc3ccc(Cl)cc3)c2)c2cncnc21 [Example 545, N-[5-(7-tert-Butyl-7H-pyrrolo[2,3-d]pyrimidine-5-carbonyl)-pyridin-3-yl]-2-(4-chloro-phenyl)-acetamide]
  IC50: 2.95 nM

## CC(C)n1cc(C(=O)c2cncc(NC(=O)Cc3cccc(S(C)(=O)=O)c3)c2)c2cncnc21 [Example 87, N-{5-[(7-isopropyl-7H-pyrrolo[2,3-d]pyrimidin-5-yl)carbonyl]pyridin-3-yl}-2-[3-(methylsulfonyl)phenyl]acetamide]
  IC50: 63.2 nM

## CC(C)n1cc(C(=O)c2cncc(NC(=O)Cc3cn4ccsc4n3)c2)c2cncnc21 [Example 360, 2-Imidazo[2,1-b]thiazol-6-yl-N-[5-(7-isopropyl-7H-pyrrolo[2,3-d]pyrimidine-5-carbonyl)-pyridin-3-yl]-acetamide]
  IC50: 956 nM

## Cn1cc(C(=O)c2cncc(NC(=O)Cc3ccc(C(F)(F)F)c(F)c3)c2)c2cncnc21 [Example 174, 2-[3-fluoro-4-(trifluoromethyl)phenyl]-N-{5-[(7-methyl-7H-pyrrolo[2,3-d]pyrimidin-5-yl)carbonyl]pyridin-3-yl}acetamide]
  IC50: 210 nM

## CC(C)n1cc(C(=O)c2cncc(NC(=O)c3cc4c(cn3)OCCO4)c2)c2cncnc21 [Example 510, 2,3-Dihydro-1,4-dioxino[2,3-c]pyridine-7-carboxylic acid [5-(7-isopropyl-7H-pyrrolo[2,3-d]pyrimidine-5-carbonyl)-pyridin-3-yl]-amide]
  IC50: 249 nM

## Cc1nc(C(F)(F)F)c(C(=O)Nc2cncc(C(=O)c3cn(C(C)C)c4ncncc34)c2)s1 [Example 384, 2-Methyl-4-trifluoromethyl-thiazole-5-carboxylic acid [5-(7-isopropyl-7H-pyrrolo[2,3-d]pyrimidine-5-carbonyl)-pyridin-3-yl]-amide]
  IC50: 4770 nM

## CC(C)n1cc(C(=O)c2cncc(NC(=O)c3noc4c3CCCC4)c2)c2cncnc21 [Example 416, 4,5,6,7-Tetrahydro-1,2-benzisoxazole-3-carboxylic acid [5-(7-isopropyl-7H-pyrrolo[2,3-d]pyrimidine-5-carbonyl)-pyridin-3-yl]-amide]
  IC50: 52 nM

## CC(C)n1cc(C(=O)c2c[nH]c(=O)c(NC(=O)Cc3ccc(C#N)cc3)c2)c2cncnc21 [Example 584, 2-(4-cyanophenyl)-N-(2-oxo-5-{[7-(propan-2-yl)-7H-pyrrolo[2,3-d]pyrimidin-5-yl]carbonyl}-1,2-dihydropyridin-3-yl)acetamide]
  IC50: 581 nM

## CC(C)n1cc(C(=O)c2cncc(NC(=O)c3csc(C4CCC4)n3)c2)c2cncnc21 [Example 459, 2-Cyclobutyl-thiazole-4-carboxylic acid [5-(7-isopropyl-7H-pyrrolo[2,3-d]pyrimidine-5-carbonyl)-pyridin-3-yl]-amide]
  IC50: 4.06 nM

## O=C(Cn1ccc(C(F)(F)F)n1)Nc1cncc(C(=O)c2cn(C3(CO)CC3)c3ncncc23)c1 [Example 525, N-{5-[7-(1-Hydroxymethyl-cyclopropyl)-7H-pyrrolo[2,3-d]pyrimidine-5-carbonyl]-pyridin-3-yl}-2-(3-trifluoromethyl-pyrazol-1-yl)-acetamide]
  IC50: 9.48 nM

## CC(C)n1cc(C(=O)c2cncc(N(C)C(=O)Cc3ccc(Cl)cc3)c2)c2cncnc21 [Example 297, 2-(4-chlorophenyl)-N-{5-[(7-isopropyl-7H-pyrrolo[2,3-d]pyrimidin-5-yl)carbonyl]pyridin-3-yl}-N-methylacetamide]
  IC50: 299 nM
